Experimental data from patent US12030875B2, “EIF4E inhibitors and uses thereof” (PIC Therapeutics, Inc., priority 2018, dated 2024).

target: T1, Human eIF4E (Homo sapiens, UniProt P06730); experiment: Human eIF4E/4G2 binding assay (TR-FRET); settings: eIF4E (aa 28-217) with biotin labeled 4G2 peptide
T1 construct: Human eIF4E (aa 28-217) with a C-terminal His-tag; made in house
Procedure: Human eIF4E (aa 28-217) with a C-terminal His-tag was expressed in E. coli in inclusion bodies. The protein was solubilized with 8 M urea and purified under denaturing conditions using nickel-charged HisTrap HP columns (GE Healthcare). The purified protein was then refolded by diluting in 20 mM Hepes pH 7.0, 0.5 M NaCl, 1 mM DTT, 1 mM EDTA, 0.5 M arginine plus 6 M urea, and then dialyzing overnight into the same buffer without the urea. The protein was further dialyzed into 20 mM Hepes, pH 6.5, 50 mM NaCl, 1 mM EDTA, 1 mM DTT, and concentrated using Hitrap SP sepharose FF columns (GE Healthcare). The concentrated protein was dialyzed into 20 mM Hepes, pH 7.0, 0.5M NaCl, 5 mM DTT and 10% glycerol, and stored at −80° C. until use.
Test compounds (3.43 mM stock in DMSO) were diluted 2-fold in series in DMSO (10 concentration points). Compound solutions (1.2 μl/well) were added into black 384-well polypropylene microplates (Matrix, Thermal Scientific). Twenty-two microliters per well of Assay Buffer (50 mM NaPi, pH 6.5, 50 mM KCl, 1 mM DTT and 0.5 mg/ml gamma globulin) and eight microliters per well of 82.5 nM purified eIF4E in Assay Buffer were added. The samples were incubated at room temperature (20-23° C.) for 15 min. Biotin labeled 4G2 peptide (Ac-Lys-Gln-Tyr-Asp-Arg-Glu-Phe-Leu-Leu-Asp-Phe-Gln-Phe-Met-Pro-Lys(Aha-Bio)-NH2, 1.75 μM stock in DMSO) was diluted to 0.14 μM in Assay Buffer (without DTT) and 5 μl/well was added. The samples were incubated at room temperature for 15 min. Five microliters per well of 6.4 nM Eu-streptavidin (Eu-SA, Perkin Elmer) and 80 nM Allophycocyanin (APC)-anti His antibody (Columbia Biosciences) in Assay Buffer (without DTT) were then added and the samples were incubated at room temperature for 20 min.
Assay signals were monitored by reading excitation at 340 nm and emission fluorescence at 615 nm and 665 nm on an Envision reader (Perkin Elmer). Normalized TR-FRET (time-resolved fluorescence resonance energy transfer) assay signal (Rn) was calculated by the formula: Rn═[(A−Ba−C×D)/(D−Bd)]×(Dc−Bd) • Where A is the fluorescence intensity of the sample at 665 nm, • D is the fluorescence intensity of the sample at 615 nm, • Ba and Bd are plate backgrounds at 665 nm and 615 nm, respectively, • Dc is the fluorescence intensity of 0.78 nM Eu-SA in the assay buffer at 615 nm • The cross-talk factor (C) is determined by the following formula: C=(Ac−Ba)/(Dc−Bd) • Where Ac is the fluorescence intensity of 0.78 nM Eu-SA in the assay buffer at 665 nm.
IC50 values were calculated using xLFit program (IDBS).

T1 sequence (P06730 28-217): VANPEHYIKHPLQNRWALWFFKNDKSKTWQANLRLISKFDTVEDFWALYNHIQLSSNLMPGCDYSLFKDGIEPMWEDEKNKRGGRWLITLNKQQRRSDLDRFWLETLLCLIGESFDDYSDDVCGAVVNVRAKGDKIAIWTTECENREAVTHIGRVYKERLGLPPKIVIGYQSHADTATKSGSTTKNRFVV

IC50 | SMILES
< 5 µM | CC1(C(=O)O)CCCN(c2nc(-c3ccc(Oc4ccccc4)cc3)c(-c3ccccc3)s2)C1 (stereo not drawn) [Compound I-217]
< 5 µM | CCCC(CNc1nc(-c2ccc(Oc3ccccc3)cc2)c(-c2ccccc2)s1)C(=O)O (stereo not drawn) [Compound I-168]
> 25 µM | CC(C)(CNc1nc(-c2ccc(-c3cnco3)cc2)c(-c2ccccc2)s1)C(=O)O [Compound I-5]
> 25 µM | CC(CNc1nc(-c2ccc(-c3cnco3)cc2)c(-c2ccccc2)s1)C(=O)O (stereo not drawn) [Compound I-27]
> 25 µM | O=C(O)C1(CNc2nc(-c3ccc(-c4ccc(F)cc4)cc3)c(-c3cncnc3)s2)CC1 [Compound I-123]
5 to 25 µM | CC(C)(CNc1nc(-c2ccc(-c3ccc(F)cc3)cc2)c(-c2cccnc2)s1)C(=O)O [Compound I-74]
< 5 µM | O=C(O)C1CCCN(c2nc(-c3ccc(-c4ccc(F)cc4)cc3)c(-c3cccc4[nH]ccc34)s2)C1 (stereo not drawn) [Compound I-109]
> 25 µM | O=C(O)CC1CCCN1c1nc(-c2ccc(-c3cnco3)cc2)c(-c2cccnc2)s1 (stereo not drawn) [Compound I-38]
< 5 µM | CC1(C(=O)O)CCCN(c2nc(-c3ccc(-c4ccc(F)cc4)cc3)c(-c3ccccc3)s2)C1 (stereo not drawn) [Compound I-144]
5 to 25 µM | CC(CNc1nc(-c2ccc(Oc3ccccc3)cc2)c(-c2ccccc2)s1)C(=O)O (stereo not drawn) [Compound I-177]
> 25 µM | O=C(O)C1(CNc2nc(-c3ccc(-c4cnco4)cc3)c(-c3ccccc3)s2)CC1 [Compound I-44]
> 25 µM | O=C(O)C1CN(c2nc(-c3ccc(Oc4ccccc4)cc3)c(-c3cncnc3)s2)C1 [Compound I-159]
> 25 µM | O=C(O)C1CN(c2nc(-c3ccc(Oc4ccccc4)cc3)c(-c3cccnc3)s2)CCO1 (stereo not drawn) [Compound I-215]
> 25 µM | O=C(O)C1CC(CNc2nc(-c3ccc(-c4ccc(F)cc4)cc3)cs2)C1 (stereo not drawn) [Compound I-126]
> 25 µM | O=C(O)C1CC(CNc2nc(-c3ccc(Oc4ccccc4)cc3)cs2)C1 (stereo not drawn) [Compound I-200]
> 25 µM | CC1(C(=O)O)CN(c2nc(-c3ccc(-c4ccc(F)cc4)cc3)c(-c3cccnc3)s2)C1 [Compound I-85]
> 25 µM | O=C(O)C1CN(c2nc(-c3ccc(Oc4ccccc4)cc3)c(-c3cncnc3)s2)CCO1 (stereo not drawn) [Compound I-214]
> 25 µM | O=C(O)C1(CNc2nc(-c3ccc(-c4cnco4)cc3)c(-c3cncnc3)s2)CC1 [Compound I-45]
< 5 µM | CCCC(CNc1nc(-c2ccc(-c3ccc(F)cc3)cc2)c(-c2ccccc2)s1)C(=O)O (stereo not drawn) [Compound I-89]
> 25 µM | CC(CC(=O)O)Nc1nc(-c2ccc(-c3ccc(F)cc3)cc2)c(-c2cccnc2)s1 (stereo not drawn) [Compound I-97]

IC50 | SMILES
> 25 µM | O=C(O)C1CN(c2nc(-c3ccc(-c4cnco4)cc3)c(-c3ccccc3)s2)CCO1 (stereo not drawn) [Compound I-56]
< 5 µM | O=C(O)C1CCN(c2nc(-c3ccc(-c4ccc(F)cc4)cc3)c(-c3ccccc3)s2)CC1 [Compound I-136]
> 25 µM | CC(C)(CNc1nc(-c2ccc(Oc3ccccc3)cc2)c(-c2cncnc2)s1)C(=O)O [Compound I-155]
> 25 µM | O=C(O)C1CCCN(c2nc(-c3ccc(Oc4ccccc4)cc3)c(-c3cncnc3)s2)C1 (stereo not drawn) [Compound I-183]
> 25 µM | CC(C)(CNc1nc(-c2ccc(Oc3ccccc3)cc2)cs1)C(=O)O [Compound I-153]
> 25 µM | CC(CNc1nc(-c2ccc(-c3cnco3)cc2)c(-c2cncnc2)s1)C(=O)O (stereo not drawn) [Compound I-28]
> 25 µM | O=C(O)C1CC(CNc2nc(-c3ccc(-c4ccc(F)cc4)cc3)c(-c3cncnc3)s2)C1 (stereo not drawn) [Compound I-129]
5 to 25 µM | CCCC(CNc1nc(-c2ccc(-c3ccc(F)cc3)cc2)c(Br)s1)C(=O)O (stereo not drawn) [Compound I-88]
> 25 µM | CC1(C(=O)O)CN(c2nc(-c3ccc(-c4cnco4)cc3)c(-c3cncnc3)s2)C1 [Compound I-14]
> 25 µM | CC(C)C(CC(=O)O)Nc1nc(-c2ccc(Oc3ccccc3)cc2)c(-c2cccnc2)s1 (stereo not drawn) [Compound I-151]
5 to 25 µM | Cc1sc(NCC(C)C(=O)O)nc1-c1ccc(-c2ccc(F)cc2)cc1 (stereo not drawn) [Compound I-230]
> 25 µM | CCCC(CNc1nc(-c2ccc(-c3cnco3)cc2)c(-c2cccc3[nH]ccc23)s1)C(=O)O (stereo not drawn) [Compound I-21]
> 25 µM | O=C(O)C1CCN(c2nc(-c3ccc(Oc4ccccc4)cc3)c(-c3cccnc3)s2)C1 (stereo not drawn) [Compound I-193]
> 25 µM | O=C(O)CC1CCCN1c1nc(-c2ccc(-c3ccc(F)cc3)cc2)c(-c2cccnc2)s1 (stereo not drawn) [Compound I-113]
> 25 µM | O=C(O)C1CCN(c2nc(-c3ccc(Oc4ccccc4)cc3)c(-c3cncnc3)s2)C1 (stereo not drawn) [Compound I-192]
> 25 µM | CC(CNc1nc(-c2ccc(-c3cnco3)cc2)c(-c2cccc3[nH]ccc23)s1)C(=O)O (stereo not drawn) [Compound I-30]
> 25 µM | CC1(C(=O)O)CCCN(c2nc(-c3ccc(-c4cnco4)cc3)c(-c3cccnc3)s2)C1 (stereo not drawn) [Compound I-62]
< 5 µM | O=C(O)[C@H]1CCCN(c2nc(-c3ccc(Oc4ccccc4)cc3)c(-c3ccccc3)s2)C1 [Compound I-228]
< 5 µM | O=C(O)C1CN(c2nc(-c3ccccc3)c(-c3ccc(-c4ccc(F)cc4)cc3)s2)CCO1 (stereo not drawn) [Compound I-240, 4-(5-(4′-fluorobiphenyl-4-yl)-4-phenylthiazol-2-yl) morpholine-2-carboxylic acid]
5 to 25 µM | O=C(O)C1CCN(c2nc(-c3ccc(-c4ccc(F)cc4)cc3)c(-c3cccnc3)s2)CC1 [Compound I-138]

IC50 | SMILES
< 5 µM | O=C(O)C1CN(c2nc(-c3ccc(-c4ccc(F)cc4)cc3)c(-c3cccc4[nH]ccc34)s2)CCO1 (stereo not drawn) [Compound I-143]
> 25 µM | CCCC(CNc1nc(-c2ccc(Oc3ccccc3)cc2)c(-c2cncnc2)s1)C(=O)O (stereo not drawn) [Compound I-169]
5 to 25 µM | CC(CC(=O)O)Nc1nc(-c2ccc(-c3ccc(F)cc3)cc2)c(-c2cccc3[nH]ccc23)s1 (stereo not drawn) [Compound I-98]
> 25 µM | O=C(O)C1(CNc2nc(-c3ccc(-c4cnco4)cc3)c(-c3cccnc3)s2)CC1 [Compound I-46]
> 25 µM | CCCC(CNc1nc(-c2ccc(-c3cnco3)cc2)cs1)C(=O)O (stereo not drawn) [Compound I-17]
> 25 µM | O=C(O)C1CN(c2nc(-c3ccc(-c4cnco4)cc3)c(-c3cccnc3)s2)CCO1 (stereo not drawn) [Compound I-58]
> 25 µM | CC(C)(CNc1nc(-c2ccc(-c3cnco3)cc2)c(-c2cncnc2)s1)C(=O)O [Compound I-6]
> 25 µM | CC1(C(=O)O)CN(c2nc(-c3ccc(-c4cnco4)cc3)c(-c3cccc4[nH]ccc34)s2)C1 [Compound I-16]
< 5 µM | O=C(O)C1CC(CNc2nc(-c3ccc(Oc4ccccc4)cc3)c(-c3ccccc3)s2)C1 (stereo not drawn) [Compound I-201]
> 25 µM | O=C(O)C1CC(CNc2nc(-c3ccc(Oc4ccccc4)cc3)c(-c3cncnc3)s2)C1 (stereo not drawn) [Compound I-202]
5 to 25 µM | CC(CNc1nc(-c2ccc(-c3ccc(F)cc3)cc2)c(-c2cccc3[nH]ccc23)s1)C(=O)O (stereo not drawn) [Compound I-104]
> 25 µM | CC(CC(=O)O)Nc1nc(-c2ccc(-c3ccc(F)cc3)cc2)cs1 (stereo not drawn) [Compound I-93]
> 25 µM | CC(CC(=O)O)Nc1nc(-c2ccc(-c3ccc(F)cc3)cc2)c(-c2cncnc2)s1 (stereo not drawn) [Compound I-96]
> 25 µM | CC(CC(=O)O)Nc1nc(-c2ccc(-c3cnco3)cc2)c(-c2ccccc2)s1 (stereo not drawn) [Compound I-22]
> 25 µM | CC(CC(=O)O)Nc1nc(-c2ccc(-c3cnco3)cc2)c(-c2cncnc2)s1 (stereo not drawn) [Compound I-23]
> 25 µM | O=C(O)C1CCN(c2nc(-c3ccc(-c4ccc(F)cc4)cc3)cs2)C1 (stereo not drawn) [Compound I-115]
> 25 µM | CC(C)C(CC(=O)O)Nc1nc(-c2cncnc2)c(-c2ccc(-c3cnco3)cc2)s1 (stereo not drawn) [Compound I-2]
> 25 µM | O=C(O)CC1CCCN1c1nc(-c2ccc(Oc3ccccc3)cc2)c(-c2cncnc2)s1 (stereo not drawn) [Compound I-187]
> 25 µM | CC(C)(CNc1nc(-c2ccc(-c3cnco3)cc2)c(-c2cccc3[nH]ccc23)s1)C(=O)O [Compound I-8]
< 5 µM | O=C(O)C1CCCN(c2nc(-c3ccc(-c4ccc(F)cc4)cc3)c(-c3ccccc3)s2)C1 (stereo not drawn) [Compound I-106]
